Results as given in patent EP0262903A2, “New acyl derivatives of 20-modified tylosin and desmycosin compounds” (priority 1986, dated 1988).
Values after ≈ are worked out from the molar mass of the structure shown. Like-named read-outs stand apart in the source and are kept apart here.

Experiments:
[1] = tested on: Staphylococcus aureus X400; test: MIC, standard agar-dilution assay; assay type: cell-based; conditions: Staphylococcus aureus X400; Methicillin-resistant strain; agar dilution; read-out: MIC
Procedure: (§1) The MIC's in Table II were determined by standard agar-dilution assays. The MIC's in Table III were obtained using conventional broth-dilution microtiter tests.

[2] = tested on: Streptococcus pyogenes C203; test: MIC, standard agar-dilution assay; assay type: cell-based; conditions: Streptococcus pyogenes C203; agar dilution; read-out: MIC
Procedure: as §1

[3] = tested on: Streptococcus faecalis X66; test: MIC, standard agar-dilution assay; assay type: cell-based; conditions: Enterococcus faecalis; Streptococcus faecalis X66; agar dilution; read-out: MIC
Procedure: as §1

[4] = tested on: Pseudomonas aeruginosa X239; test: MIC, standard agar-dilution assay; assay type: cell-based; conditions: Pseudomonas aeruginosa X239; agar dilution; read-out: MIC
Procedure: as §1

[5] = tested on: Haemophilus influenzae C.L.; test: MIC, standard agar-dilution assay; assay type: cell-based; conditions: Haemophilus influenzae C.L.; Ampicillin-sensitive strain; agar dilution; read-out: MIC
Procedure: as §1

[6] = tested on: Streptococcus pneumoniae Park I; test: MIC, standard agar-dilution assay; assay type: cell-based; conditions: Streptococcus pneumoniae Park I; agar dilution; read-out: MIC
Procedure: as §1

[7] = tested on: Staphylococcus epidermidis EPI1; test: MIC, standard agar-dilution assay; assay type: cell-based; conditions: Staphylococcus epidermidis EPI1; agar dilution; read-out: MIC
Procedure: as §1

[8] = tested on: Haemophilus influenzae 76; test: MIC, standard agar-dilution assay; assay type: cell-based; conditions: Haemophilus influenzae 76; Ampicillin-resistant strain; agar dilution; read-out: MIC
Procedure: as §1

[9] = tested on: Staphylococcus aureus X1.1; test: MIC, standard agar-dilution assay; assay type: cell-based; conditions: Staphylococcus aureus X1.1; agar dilution; read-out: MIC
Procedure: as §1

[10] = tested on: Streptococcus faecalis 2041; test: MIC, standard agar-dilution assay; assay type: cell-based; conditions: Enterococcus faecalis; Streptococcus faecalis 2041; agar dilution; read-out: MIC
Procedure: as §1

[11] = tested on: Staphylococcus aureus S13E; test: MIC, standard agar-dilution assay; assay type: cell-based
Procedure: as §1

Escherichia coli EC14 = test: MIC, standard agar-dilution assay; assay type: cell-based; conditions: Escherichia coli EC14; agar dilution; read-out: MIC
Procedure: as §1

[12] = tested on: Klebsiella pneumoniae X68; test: MIC, standard agar-dilution assay; assay type: cell-based
Procedure: as §1

[13] = tested on: Staphylococcus aureus V41; test: MIC, standard agar-dilution assay; assay type: cell-based; conditions: Staphylococcus aureus V41; Penicillin-resistant strain; agar dilution; read-out: MIC
Procedure: as §1

[14] = tested on: Staphylococcus epidermidis 222; test: MIC, standard agar-dilution assay; assay type: cell-based; conditions: Staphylococcus epidermidis 222; agar dilution; read-out: MIC
Procedure: as §1

[15] = tested on: Pasteurella hemolytica 41D; test: MIC, conventional broth-dilution microtiter test; assay type: cell-based
Procedure: as §1

[16] = tested on: Pasteurella multocida 40G; test: MIC, conventional broth-dilution microtiter test; assay type: cell-based
Procedure: as §1

[17] = tested on: Mycoplasma gallisepticum 29C; test: MIC, conventional broth-dilution microtiter test; assay type: cell-based; conditions: Mycoplasmoides gallisepticum
Procedure: as §1

[18] = tested on: Mycoplasma gallisepticum 15E; test: MIC, conventional broth-dilution microtiter test; assay type: cell-based; conditions: Mycoplasmoides gallisepticum
Procedure: as §1

[19] = tested on: Mycoplasma hyopneumoniae S5972; test: MIC, conventional broth-dilution microtiter test; assay type: cell-based; conditions: Mesomycoplasma hyopneumoniae
Procedure: as §1

Staphylococcus aureus = test: MIC, conventional broth-dilution microtiter test; assay type: cell-based
Procedure: as §1

[20] = tested on: Pasteurella multocida 17E; test: MIC, conventional broth-dilution microtiter test; assay type: cell-based; conditions: Bovine isolate
Procedure: as §1

Mycoplasma hyorhinis 29E = test: MIC, conventional broth-dilution microtiter test; assay type: cell-based
Procedure: as §1

Mycoplasma synoviae 40A = test: MIC, conventional broth-dilution microtiter test; assay type: cell-based; conditions: Mycoplasmopsis synoviae
Procedure: as §1

[21] = tested on: Pasteurella hemolytica 22C; test: MIC, conventional broth-dilution microtiter test; assay type: cell-based
Procedure: as §1

[22] = tested on: Pasteurella hemolytica 23C; test: MIC, conventional broth-dilution microtiter test; assay type: cell-based
Procedure: as §1

[23] = tested on: Pasteurella multocida 22A; test: MIC, conventional broth-dilution microtiter test; assay type: cell-based
Procedure: as §1

[24] = tested on: Pasteurella multocida 60A; test: MIC, conventional broth-dilution microtiter test; assay type: cell-based; conditions: Avian isolate
Procedure: as §1

Streptococcus sp. 19F = test: MIC, conventional broth-dilution microtiter test; assay type: cell-based
Procedure: as §1

[25] = tested on: Mycoplasma gallisepticum 36H; test: MIC, conventional broth-dilution microtiter test; assay type: cell-based; conditions: Mycoplasmoides gallisepticum
Procedure: as §1

[26] = tested on: Pasteurella multocida 68C; test: MIC, conventional broth-dilution microtiter test; assay type: cell-based
Procedure: as §1

[27] = tested on: Bordetella bronchiseptica; test: MIC, conventional broth-dilution microtiter test; assay type: cell-based
Procedure: as §1

[28] = tested on: Streptococcus pyogenes C203; test: ED50 in mice experimentally infected with S. pyogenes C203; assay type: in vivo; conditions: two doses given 1 and 4 hours post-infection, dose protecting 50% of the test animals
Procedure: The formula 1 compounds have shown in vivo antimicrobial activity against experimentally-induced infections in laboratory animals. When two doses of test compound were administered to mice experimentally infected with S. pyogenes C203, the activity observed was measured as an ED₅₀ value [effective dose in mg/kg to protect 50% of the test animals: see Warren Wick, et 5 al., J. Bacteriol. 81, 233-235 (1961)].

[29] = C203, mice, oral, read-out: ED50 Oral
[30] = C203, sc, mice, subcutaneous, read-out: ED50 Subcutaneous

| Compound | MIC [1] [µg/mL] | MIC [2] [µg/mL] | MIC [3] [µg/mL] | MIC [4] [µg/mL] | MIC [5] [µg/mL] | MIC [6] [µg/mL] | MIC [7] [µg/mL] | MIC [8] [µg/mL] | MIC [9] [µg/mL] | MIC [10] [µg/mL] | MIC [11] [µg/mL] | MIC (Escherichia coli EC14) [µg/mL] | MIC [13] [µg/mL] | MIC [14] [µg/mL] | MIC [15] [µg/mL] | MIC [16] [µg/mL] | MIC [17] [µg/mL] | MIC [18] [µg/mL] | MIC [19] [µg/mL] | MIC (Staphylococcus aureus) [µg/mL] | also measured |
| --- | --- | --- | --- | --- | --- | --- | --- | --- | --- | --- | --- | --- | --- | --- | --- | --- | --- | --- | --- | --- | --- |
| CCC1OC(=O)CC(O)C(C)C(OC2OC(C)C(O)C(N(C)C)C2O)C(CCOc2ccccc2)CC(C)C(=O)C=CC(C)=CC1COC1OC(C)C(OC(C)=O)C(OC)C1OC (stereo not drawn) [Compound 2, 4ʹʹ-O-Acetyl-20-DH-20-O-phenyl-desmycosin] | 2 (≈ 2.24 µM) | 1 (≈ 1.12 µM) | 16 (≈ 17.9 µM) | > 128 | 128 (≈ 143 µM) | 2 (≈ 2.24 µM) | 2 (≈ 2.24 µM) | 128 (≈ 143 µM) | 2 (≈ 2.24 µM) | 32 (≈ 35.9 µM) | 2 (≈ 2.24 µM) | > 128 | 2 (≈ 2.24 µM) | 1 (≈ 1.12 µM) | > 50 | 50 (≈ 56 µM) | 0.78 (≈ 0.874 µM) | 50 (≈ 56 µM) | 25 (≈ 28 µM) | 1.56 (≈ 1.75 µM) | MIC ([12]; Klebsiella pneumoniae X68, agar dilution, read-out: MIC): > 128 µg/mL; MIC [20]: 50 µg/mL (≈ 56 µM); MIC (Mycoplasma hyorhinis 29E): 50 µg/mL (≈ 56 µM); MIC (Mycoplasma synoviae 40A): 3.12 µg/mL (≈ 3.5 µM); MIC [21]: > 50 µg/mL; MIC [22]: 50 µg/mL (≈ 56 µM); MIC [23]: > 50 µg/mL; MIC [24]: > 50 µg/mL; MIC (Streptococcus sp. 19F): 12.5 µg/mL (≈ 14 µM); MIC [25]: 50 µg/mL (≈ 56 µM); MIC [26]: 25 µg/mL (≈ 28 µM); MIC [27]: > 50 µg/mL; ED50 [28, 29]: 10.9 mg/kg; ED50 [28, 30]: 4.46 mg/kg |
| CCC1OC(=O)CC(O)C(C)C(OC2OC(C)C(O)C(N(C)C)C2O)C(CCOc2ccccc2)CC(C)C(=O)C=CC(C)=CC1COC1OC(C)C(OC(=O)CN2CCCC2)C(OC)C1OC (stereo not drawn) [Compound 13, 20-DH-20-O-Phenyl-4ʹʹ-O-(pyrrolidin-1-ylacetyl)-desmycosin] | 1 (≈ 1.04 µM) | 1 (≈ 1.04 µM) | 16 (≈ 16.6 µM) | > 128 | 32 (≈ 33.3 µM) | 2 (≈ 2.08 µM) | 1 (≈ 1.04 µM) | 32 (≈ 33.3 µM) | 0.5 (≈ 0.52 µM) | 16 (≈ 16.6 µM) | 1 (≈ 1.04 µM) | > 128 | 1 (≈ 1.04 µM) | 0.5 (≈ 0.52 µM) | > 50 | 25 (≈ 26 µM) | 1.56 (≈ 1.62 µM) | 50 (≈ 52 µM) | > 50 | 3.12 (≈ 3.25 µM) | MIC ([12]; Klebsiella pneumoniae, X68): > 128 µg/mL; MIC [20]: 50 µg/mL (≈ 52 µM); MIC [21]: > 50 µg/mL; MIC [22]: 50 µg/mL (≈ 52 µM); MIC [23]: 50 µg/mL (≈ 52 µM); MIC [24]: 50 µg/mL (≈ 52 µM); MIC (Streptococcus sp. 19F): 6.25 µg/mL (≈ 6.5 µM); MIC [25]: 50 µg/mL (≈ 52 µM); MIC [26]: 25 µg/mL (≈ 26 µM); MIC [27]: > 50 µg/mL; ED50 [28, 29]: 24 mg/kg; ED50 [28, 30]: 10 mg/kg |
